Results reported in patent US4985360A (priority 1987, dated 1991).

Tested on: bilirubin oxidase
Assay: not given
Type: biochemical, Penicillium janthinellum
Conditions: additive (metal ion, EDTA) 1 mM; activity without addition = 100; 10 min

Row | Molecule | Relative Acty. (relative enzyme activity with additive)
1 | [Cl][Ni][Cl] [NiCl2] | 43%
2 | [Cl][Al]([Cl])[Cl] [AlCl3] | 88%
3 | [Cl][Fe]([Cl])[Cl] [FeCl3] | 113%
4 | [Ca+2].[Cl-].[Cl-] [CaCl2] | 31%
5 | Triazole | 105%
6 | [N-]=[N+]=[N-].[Na+] [NaN3] | 106%
7 | [Cl-].[Cs+] [CsCl] | 139%
8 | [Cl][Mn][Cl] [MnCl2] | 10%
9 | [Cl-].[Cl-].[Zn+2] [ZnCl2] | 60%
10 | Cl.N [NH4 Cl] | 108%
11 | [Cl-].[K+] [KCl] | 106%
12 | [Cl][Cu][Cl] [CuCL2] | 0%
13 | [Cl-].[Cl-].[Co+2] [CoCl2] | 0%
14 | [Ba+2].[Cl-].[Cl-] [BaCl2] | 49%
15 | [Cl-].[Cl-].[Mg+2] [MgCl2] | 96%
16 | [Cl][Pb][Cl] [PbCl2] | 377%

Same assay, conditions: bilirubin oxidase, 10 min

Row | Molecule | Relative Acty. (relative enzyme activity with additive)
17 | CCCCCCCCCCCCCCCC[N+](C)(C)C.[Cl-] [CTMC, Cetyl trimethylammonium chloride] | 316%
18 | CCCCCCCCCCCCCCCC[N+](C)(C)C.[Br-] [CTMB, Cetyl trimethylammonium bromide] | 277%

Same assay, conditions: bilirubin oxidase, 10 min, 1000 µM

Row | Molecule | Relative Acty. (relative enzyme activity with additive)
19 | NO [Hydroxylamine] | 108%
20 | O=C(O)CN(CCN(CC(=O)O)CC(=O)O)CC(=O)O [EDTA] | 102%
21 | [Cl-].[Li+] [LiCl] | 112%
22 | [Cl-].[Na+] [NaCl] | 106%

Same assay, conditions: metal ion 1 mM or surfactant 0.05%

Row | Molecule | Effect of additive on enzyme activity (in words)
23 | [Cl][Hg][Cl] [HgCL2] | accelerated considerably
24 | [Cl][Cu][Cl] [CuCL2] | inhibited
25 | CCCCCCCCCCCCCCCC[N+](C)(C)C.[Cl-] [CTMC, Cetyl trimethylammonium chloride] | accelerated considerably
26 | [Cl-].[Cl-].[Co+2] [CoCl2] | inhibited
27 | [Cl][Pb][Cl] [PbCl2] | accelerated considerably

Tested on: bilirubin oxidase
Assay: Km value determination
Type: biochemical, Penicillium janthinellum
Conditions: 0.1 ml enzyme solution, 2-20 mg bilirubin substrate solutions

Row | Molecule | Km
28 | C=CC1=C(C)/C(=C/c2[nH]c(Cc3[nH]c(/C=C4\NC(=O)C(C)=C4C=C)c(C)c3CCC(=O)O)c(CCC(=O)O)c2C)NC1=O [Bilirubin] | 110 µM

Tested on: bilirubin oxidase
Assay: Substrate specificity by oxygen consumption rate (electrode oxygen meter)
Type: biochemical, Penicillium janthinellum
Conditions: 0.1 mM substrate, 0.1 mM HgCl2 added
Procedure: The intrinsic substrate specificity for various substrates was estimated based upon the oxygen consumption rate using an electrode oxygen meter. The measurements were effected under an addition of HgCl2 to the substrate solution up to a concentration of 0.1 mM. For the measurements, 0.1 mM solution of the substrate with addition of 0.1 ml of the enzyme solution as employed in the determination of the enzyme activity was used. […] Thus, it was confirmed that the bilirubin oxidase according to the present invention has a very high specificity to bilirubin.

Row | Molecule | Relative Activity (substrate specificity)
29 | Chlorophyllin | 0%
30 | Oc1cccc(O)c1O [Pyrogallol] | 0%
31 | Oc1ccccc1O [Catechol] | 0%
32 | CC1=C(CCC(=O)O)c2cc3[nH]c(cc4nc(cc5[nH]c(cc1n2)c(C)c5C(C)O)C(C)=C4C(C)O)c(C)c3CCC(=O)O (stereo not shown) [Hematoporphyrin] | 0%
33 | C=CC1=C(C)/C(=C/C2=NC(=C\c3[nH]c(/C=C4\NC(=O)C(C)=C4C=C)c(C)c3CCC(=O)O)/C(CCC(=O)O)=C2C)NC1=O [Biliverdin] | 0%
34 | Cc1c(N)c(=O)n(-c2ccccc2)n1C [4-Aminoantipyrin] | 0%
35 | Chlorophyll | 0%
36 | Oc1ccc(O)cc1 [Hydroquinone] | 0%
37 | Oc1ccccc1 [Phenol] | 0%
38 | Hemoglobin | 0%
39 | Hemin | 0%
40 | C=CC1=C(C)/C(=C/c2[nH]c(Cc3[nH]c(/C=C4\NC(=O)C(C)=C4C=C)c(C)c3CCC(=O)O)c(CCC(=O)O)c2C)NC1=O [Bilirubin] | 100%
